{
  "source": "patent US11957735B2",
  "about": "“Releasable GLP-1 conjugates” (QuiaPEG Pharmaceuticals AB, priority 2018, dated 2024)",
  "assay": "pH-triggered hydrolysis (T1/2) in TRIS buffer at 37° C., HPLC with AZT internal reference",
  "type": "physicochemical",
  "conditions": "pH 8, hydrolysis of aminouridine carbamate, process of Example 1",
  "method": "In the following experiment, the T1/2 at pH 8 is calculated to be approx. 11 h, which translates to 44 h at pH 7.4 (factor 4×). ˜1 mg conjugate was dissolved in a volume of 20% MeCN in water. An appropriate amount of azidothymidine (AZT) was added as an internal reference and the hydrolysis was started by addition of a volume of 0.3 M TRIS buffer solution at pH 8.0. The reaction mixture was then kept at 37° C. 30 μL aliquots were taken at each time point and acidified by addition of 20 μL 1 M AcOH before injection to HPLC.",
  "data": [
    {"smiles": "O=C(NC1C(O)[C@@H](CO)O[C@H]1n1ccc(=O)[nH]c1=O)OCC(c1ccccc1)c1ccccc1", "note": "(stereo partly shown) [compound 1]", "values": [
      {"measurement": "half-life", "result": 12, "unit": "days"}
    ]}
  ]
}
